Results reported in PubChem BioAssay AID248 (DTP/NCI, 2004).
Inconclusive results and toxic doses are left out. Cut-off read from the data, not from the text of the source: active = T/C of 150% or more; inactive = T/C below 125%.

Test system: L1210 leukemia ip in BDF1 mice, survival T/C
Assay: NCI In Vivo Anticancer Drug Screen. Data for tumor model L1210 Leukemia (intraperitoneal) in B6D2F1 (BDF1) mice
Details: endpoint: mean survival time, higher = longer survival
How it was run: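 Ratio derived from survival: compound-dosed mice over vehicle-dosed mice, all bearing a transplantable tumor.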

[1] = dose: 100.0 mg/kg/injection, schedule: Q04DX003 (ip), vehicle: saline
[2] = dose: 200.0 mg/kg/injection, schedule: Q04DX003 (ip), vehicle: saline
[3] = dose: 100.0 mg/kg/injection, schedule: Q04DX003 (ip), vehicle: other
[4] = dose: 200.0 mg/kg/injection, schedule: Q04DX003 (ip), vehicle: other
[5] = dose: 400.0 mg/kg/injection, schedule: Q04DX003 (ip), vehicle: other
[6] = dose: 100.0 mg/kg/injection, schedule: Q01DX009 (ip), vehicle: saline with Tween-80
[7] = dose: 200.0 mg/kg/injection, schedule: Q01DX009 (ip), vehicle: saline with Tween-80
[8] = dose: 100.0 mg/kg/injection, schedule: Q04DX003 (ip), vehicle: saline with Tween-80
[9] = dose: 200.0 mg/kg/injection, schedule: Q04DX003 (ip), vehicle: saline with Tween-80
[10] = dose: 400.0 mg/kg/injection, schedule: Q04DX003 (ip), vehicle: saline with Tween-80
[11] = dose: 100.0 mg/kg/injection, schedule: Q01DX009 (ip), vehicle: saline
[12] = dose: 200.0 mg/kg/injection, schedule: Q01DX009 (ip), vehicle: saline

Measured: T/C

Cc1ccc(P(=O)(O)O)cc1C
inactive: dose: 37.5 mg/kg/injection, schedule: Q01DX009 (ip), vehicle: saline 101 % of control | dose: 50.0 mg/kg/injection, schedule: Q01DX009 (ip), vehicle: Klucel (hydroxypropylcellulose) (HPC) 101 % of control | dose: 75.0 mg/kg/injection, schedule: Q01DX009 (ip), vehicle: saline 89 % of control | dose: 100.0 mg/kg/injection, schedule: Q01DX009 (ip), vehicle: Klucel (hydroxypropylcellulose) (HPC) 95 % of control | [1] 100 % of control | dose: 150.0 mg/kg/injection, schedule: Q01DX009 (ip), vehicle: saline 87 % of control | dose: 200.0 mg/kg/injection, schedule: Q01DX009 (ip), vehicle: Klucel (hydroxypropylcellulose) (HPC) 101 % of control | [2] 88 % of control

CC(CC(=O)C(F)(F)F)=NCC(C)N=C(C)CC(=O)C(F)(F)F (stereo not drawn)
inactive: dose: 100.0 mg/kg/injection, schedule: Q01DX001 (ip), vehicle: other 101 % of control | [3] 115 % of control | dose: 200.0 mg/kg/injection, schedule: Q01DX001 (ip), vehicle: other 86 % of control | [4] 105 % of control | dose: 400.0 mg/kg/injection, schedule: Q01DX001 (ip), vehicle: other 97 % of control | [5] 111 % of control

CCC1(C)CC(=O)NC(=O)C1.[Tl]
inactive: dose: 3.12 mg/kg/injection, schedule: Q01DX009 (ip), vehicle: water 100 % of control | dose: 3.12 mg/kg/injection, schedule: Q04DX003 (ip), vehicle: water 97 % of control | dose: 6.25 mg/kg/injection, schedule: Q01DX009 (ip), vehicle: water 97 % of control | dose: 6.25 mg/kg/injection, schedule: Q04DX003 (ip), vehicle: water 100 % of control | dose: 12.5 mg/kg/injection, schedule: Q04DX003 (ip), vehicle: water 105 % of control

O=C(CCl)Nc1cc2ccccc2c2ccccc12
inactive: dose: 75.0 mg/kg/injection, schedule: Q01DX001 (ip), vehicle: saline 88 % of control | dose: 150.0 mg/kg/injection, schedule: Q01DX001 (ip), vehicle: saline 91 % of control | dose: 300.0 mg/kg/injection, schedule: Q01DX001 (ip), vehicle: saline 96 % of control

CCCCCCCCCCCCCCCC1=NN(c2ccccc2)C(=O)C1N=Nc1ccccc1 (stereo not drawn)
inactive: dose: 100.0 mg/kg/injection, schedule: Q04DX003 (ip), vehicle: Klucel (hydroxypropylcellulose) (HPC) 102 % of control | dose: 200.0 mg/kg/injection, schedule: Q04DX003 (ip), vehicle: Klucel (hydroxypropylcellulose) (HPC) 98 % of control | dose: 400.0 mg/kg/injection, schedule: Q04DX003 (ip), vehicle: Klucel (hydroxypropylcellulose) (HPC) 94 % of control

O=C(O)/C=C/c1ccc(Cl)cc1Cl
inactive: [6] 88 % of control | [7] 87 % of control

O=C(Cc1ccccc1)c1ccc(OCC2CO2)cc1 (stereo not drawn)
inactive: [8] 96 % of control | [9] 94 % of control | [10] 94 % of control

CCCC1(CCC)CN(C)C1=O
inactive: dose: 12.5 mg/kg/injection, schedule: Q01DX009 (ip), vehicle: saline 97 % of control | dose: 25.0 mg/kg/injection, schedule: Q01DX009 (ip), vehicle: saline 88 % of control | dose: 25.0 mg/kg/injection, schedule: Q04DX003 (ip), vehicle: saline 104 % of control | dose: 50.0 mg/kg/injection, schedule: Q01DX009 (ip), vehicle: saline 100 % of control | dose: 50.0 mg/kg/injection, schedule: Q04DX003 (ip), vehicle: saline 98 % of control | [11] 102 % of control | [1] 98 % of control | [12] 102 % of control | [2] 98 % of control

O=C(O)C(CSSCC(NS(=O)(=O)Cc1ccccc1)C(=O)O)NS(=O)(=O)Cc1ccccc1 (stereo not drawn)
inactive: [3] 97 % of control | [4] 92 % of control | [5] 93 % of control

CC(I)CNc1ccc(C(=O)O)c(O)c1 (stereo not drawn)
inactive: dose: 100.0 mg/kg/injection, schedule: Q04DX003 (ip), vehicle: gum acacia 97 % of control | dose: 200.0 mg/kg/injection, schedule: Q04DX003 (ip), vehicle: gum acacia 89 % of control | dose: 400.0 mg/kg/injection, schedule: Q04DX003 (ip), vehicle: gum acacia 94 % of control

CCOC(=O)/C=C1/Nc2cc(C)c(C)cc2NC1=O
inactive: [8] 91 % of control | [9] 89 % of control | [10] 94 % of control

CCCCC(CC)CN(CCOc1nc(OCCN(CC(CC)CCCC)CC(CC)CCCC)nc(OCCN(CC(CC)CCCC)CC(CC)CCCC)n1)CC(CC)CCCC (stereo not drawn)
inactive: dose: 25.6 mg/kg/injection, schedule: Q04DX002 (ip), vehicle: saline with Tween-80 102 % of control | dose: 64.0 mg/kg/injection, schedule: Q04DX002 (ip), vehicle: saline with Tween-80 94 % of control | dose: 160.0 mg/kg/injection, schedule: Q04DX002 (ip), vehicle: saline with Tween-80 97 % of control | dose: 400.0 mg/kg/injection, schedule: Q04DX002 (ip), vehicle: saline with Tween-80 94 % of control

CCOC(=O)Nc1ccc(SC)cc1
inactive: [11] 94 % of control | [12] 100 % of control | dose: 400.0 mg/kg/injection, schedule: Q01DX009 (ip), vehicle: saline 103 % of control

CC(=O)OC1CCC(C)(C2CCC3(C)C(C(C)CCCC(C)C)CCC3C2CC(=O)O)C(=O)C1 (stereo not drawn)
inactive: [8] 87 % of control | [7] 97 % of control | [9] 91 % of control | [10] 91 % of control

CNC(Cc1ccccc1)c1ccccc1 (stereo not drawn)
inactive: dose: 25.0 mg/kg/injection, schedule: Q01DX009 (ip), vehicle: saline with Tween-80 94 % of control | dose: 50.0 mg/kg/injection, schedule: Q01DX009 (ip), vehicle: saline with Tween-80 101 % of control | [6] 99 % of control

CN(C)Cc1c[nH]c2c1S/C(=C/c1ccccc1)C2=O
inactive: dose: 100.0 mg/kg/injection, schedule: Q01DX001 (ip), vehicle: Klucel (hydroxypropylcellulose) (HPC) 105 % of control | dose: 200.0 mg/kg/injection, schedule: Q01DX001 (ip), vehicle: Klucel (hydroxypropylcellulose) (HPC) 96 % of control | dose: 400.0 mg/kg/injection, schedule: Q01DX001 (ip), vehicle: Klucel (hydroxypropylcellulose) (HPC) 100 % of control

O=C1C=CC(c2ccccc2)(c2ccccc2)C=C1
inactive: dose: 25.0 mg/kg/injection, schedule: Q04DX002 (ip), vehicle: saline with Tween-80 93 % of control | dose: 50.0 mg/kg/injection, schedule: Q04DX002 (ip), vehicle: saline with Tween-80 101 % of control | dose: 100.0 mg/kg/injection, schedule: Q04DX002 (ip), vehicle: saline with Tween-80 96 % of control

CCCCCCCCCC[n+]1cccc(C(N)=O)c1
inactive: dose: 5.0 mg/kg/injection, schedule: Q04DX003 (ip), vehicle: saline 93 % of control | dose: 10.0 mg/kg/injection, schedule: Q04DX003 (ip), vehicle: saline 96 % of control | dose: 20.0 mg/kg/injection, schedule: Q04DX003 (ip), vehicle: saline 96 % of control

CCOC(=O)n1cnc2nc(N)nc(SC)c21
inactive: dose: 50.0 mg/kg/injection, schedule: Q01DX001 (ip), vehicle: saline 103 % of control | dose: 100.0 mg/kg/injection, schedule: Q01DX001 (ip), vehicle: saline 97 % of control | dose: 200.0 mg/kg/injection, schedule: Q01DX001 (ip), vehicle: saline 100 % of control | dose: 400.0 mg/kg/injection, schedule: Q01DX001 (ip), vehicle: saline 122 % of control

O=c1[nH]c2ccccc2c2ccc(Br)cc12
inactive: dose: 100.0 mg/kg/injection, schedule: Q01DX001 (ip), vehicle: carboxymethylcellulose (CMC) 104 % of control | dose: 200.0 mg/kg/injection, schedule: Q01DX001 (ip), vehicle: carboxymethylcellulose (CMC) 97 % of control | dose: 400.0 mg/kg/injection, schedule: Q01DX001 (ip), vehicle: carboxymethylcellulose (CMC) 90 % of control
